Data reported in US10561703B2, “Method of modulating sex hormone levels using a sex hormone secretion modulator” (GEMVAX & KAEL CO., LTD., priority 2013, dated 2020).

Tested on: RWPE-1
Assay: Cell proliferation (CCK-8) in prostate epithelial cell line
Assay type: cell-based
Method: When testosterone is injected into the body, testosterone becomes dihydrotestosterone (DHT) due to 5α-reductase, which stimulates the proliferation of prostate cells and induces benign prostatatic hyperplasia (BPH). Based on these facts, a PEP-1 (GV1001) injection experiment was performed for the inhibition of proliferation of prostatic cells in the following manner: The cell lines were mesenchymal cell lines (WPMY-1) and epithelial cell lines (RWPE-1) of prostates obtained from BPH animal models. […] Observation of changes in the proliferation was performed by suctioning a culture medium, adding 10 μL of CCK-8 solution to each well, and measuring an optical density at 450 nm for 1 hour to about 4 hours.

“EARPALLTSRLRFIPK (listed as Homo sapiens) [PEP-1, hormone secretion modulator / GnRH analog]” was tested, and the “Cell proliferation (optical density at 450 nm) versus untreated cells” value (RWPE-1, 100 and 200 μM GV1001, no DHT) was “did not show a substantial difference in optical densities” and the “Inhibition of DHT-induced cell proliferation” value (RWPE-1, 100 and 200 μM GV1001 with 25 nM DHT) was “substantial inhibition effects on proliferation”.
